# Measured values reported in patent US20060035983A1, “Methods for treating fungal infections” (priority 2002, published 2006).
# Tests used:
# [1] = critical micelle content; no method given; cited from earlier work
# [2] = tested on: Trichophyton rubrum; experiment: Antifungal susceptibility testing (NCCLS M27-A), Trichophyton rubrum cultures in vitro; format: cell-based; conditions: for MIC80 / MIC100: 7 days at 30° C.; for MIC100: lowest concentration that inhibited 100% of fungal growth; for MFC: lowest concentration that killed at least 97% of the original inoculum; for fungicidal effect: result in words
# Method: Suspensions were then treated with various polyoxyethylene alkyl ethers at a range of concentrations, and incubated for 7 days at 30° C. […] Minimum fungicidal concentrations (MFCs) were determined as the lowest concentration of compound that killed at least 97% of the original inoculum, as compared with the verified inoculum count.
# [3] = tested on: Fusarium solani; experiment: Additional fungal species susceptibility testing, Fusarium solani; format: cell-based
# Method: (§1) A number of polyoxyethylene alkyl ethers were tested for fungicidal activity against Trichophyton rubrum cultures in vitro according to standard methods (see, Approved Standard M27-A, National Commitee for […] Laboratory Standards, 1997). Briefly, inocula from Trichophyton rubrum were harvested from agar cultures, suspended in 0.85% saline, and diluted to a verified final concentration of […] colony-forming units (CFU) per ml. Suspensions were then treated with various polyoxyethylene alkyl ethers at a range of concentrations, and incubated for 7 days at 30° C. Minimum inhibitory concentrations (MICs) were determined as the lowest concentration of compound that inhibited 100% of fungal growth, as compared with a polyoxyethylene alkyl ether-free control suspension. Minimum fungicidal concentrations (MFCs) were determined as the lowest concentration of compound that killed at least 97% of the original inoculum, as compared with the verified inoculum count. Trichophyton rubrum is the causative organism in 68-100% of patients in onychomycosis trials (Crawford et al. (2002) Archives Dermatol. 138:811-816). Trichophyton Mentagrophytes is the causative organism in most of the rest. Although yeast and other nondermatophytes can cause onychomycosis, the incidence is small. Additional fungal species were tested for susceptibility to treatment with Laureth-4 as described in Example 1.
# [4] = tested on: Trichophyton mentagrophytes; experiment: Additional fungal species susceptibility testing, Trichophyton mentagrophytes; format: cell-based
# Method: as §1
# [5] = tested on: Scopulariopsis brevicaulis; experiment: Additional fungal species susceptibility testing, Scopulariopsis brevicaulis; format: cell-based
# Method: as §1
# [6] = tested on: Candida Albicans; experiment: Additional fungal species susceptibility testing, Candida albicans; format: cell-based
# Method: as §1
# [7] = tested on: Candida Parapsilosis; experiment: Additional fungal species susceptibility testing, Candida parapsilosis; format: cell-based
# Method: as §1
# [8] = tested on: Aspergillus flavus; experiment: Additional fungal species susceptibility testing, Aspergillus flavus; format: cell-based
# Method: as §1
Compound,CMC [1],MIC80 [2],MIC100 [2],MFC [2],also measured
C[C@H](CCC(=O)NCCC[N+](C)(C)CCCS(=O)(=O)[O-])[C@H]1CC[C@H]2[C@@H]3[C@H](O)C[C@@H]4C[C@H](O)CC[C@]4(C)[C@H]3C[C@H](O)[C@]12C [CHAPS],6 to 10 mM,500 µg/mL,1000 µg/mL,,
CCCCCCCCO[C@@H]1O[C@H](CO)[C@@H](O)[C@H](O)[C@H]1O [n-octyl-β-D-glucopyranoside],20 to 25 mM,31.25 µg/mL,1000 µg/mL,,
CCCCCCCCS[C@@H]1O[C@H](CO)[C@@H](O)[C@H](O)[C@H]1O [n-octyl-β-D-thioglucopyranoside],9 mM,500 µg/mL,1000 µg/mL,,
Polyethylene glycol tert-octylphenyl ether [Triton X-100],0.2 to 0.9 mM,31.25 µg/mL,1000 µg/mL,,
Polyoxyethylene 2 cetyl ether [BRIJ 52],,0.98 µg/mL,3.9 µg/mL,7.8 µg/mL,
Polyoxyethylene 2 oleyl ether [BRIJ 93],,250 µg/mL,250 µg/mL,1000 µg/mL,fungicidal effect [2]: loss of the effect
Polyoxyethylene 2 stearyl ether [BRIJ 72],,0.98 µg/mL,0.98 µg/mL,3.9 µg/mL,
Polyoxyethylene 4 lauryl ether [BRIJ 30],,0.98 µg/mL,1.95 µg/mL,1.95 µg/mL,MFC [3]: >5000 µg/mL; MIC80 [3]: 78 µg/mL; MIC100 [3]: >5000 µg/mL; MFC [4]: 625 µg/mL; MIC80 [4]: 5 µg/mL; MIC100 [4]: 625 µg/mL; MFC [5]: >5000 µg/mL; MIC80 [5]: 78 µg/mL; MIC100 [5]: >5000 µg/mL; MFC [6]: >5000 µg/mL; MIC80 [6]: >5000 µg/mL; MIC100 [6]: >5000 µg/mL; MFC [7]: >5000 µg/mL; MIC80 [7]: 15.5 µg/mL; MIC100 [7]: >5000 µg/mL; MFC [8]: >5000 µg/mL; MIC80 [8]: 39 µg/mL; MIC100 [8]: >5000 µg/mL
Polyoxyethylene 20 cetyl ether [BRIJ 58],,0.49 µg/mL,0.98 µg/mL,1.95 µg/mL,
Polyoxyethylene 20 cetyl/stearyl ether [BRIJ 68],,1.95 µg/mL,3.9 µg/mL,15.6 µg/mL,
Polyoxyethylene 20 oleyl ether [BRIJ 98],,250 µg/mL,500 µg/mL,1000 µg/mL,fungicidal effect [2]: loss of the effect
Polyoxyethylene 20 stearyl ether [BRIJ 78],,0.98 µg/mL,1.95 µg/mL,3.9 µg/mL,
Polyoxyethylene 23 lauryl ether [BRIJ 35],0.09 mM,0.49 µg/mL,0.98 µg/mL,1.95 µg/mL,
Polyoxyethylenesorbitan monolaurate [Tween 20],0.059 mM,125 µg/mL,500 µg/mL,1000 µg/mL,
Polyoxyethylenesorbitan monooleate [Tween 80],0.059 mM,250 µg/mL,1000 µg/mL,1000 µg/mL,
Polyoxyethylenesorbitan monopalmitate [Tween 60],0.059 mM,250 µg/mL,500 µg/mL,1000 µg/mL,
